According to EP2790511B1 (Merck Sharp & Dohme Corp., priority 2011, dated 2013):

The molecules below were run against T1, Kir1.1 (ROMK1) (Homo sapiens, UniProt P48048) (assay: Electrophysiology Assay (whole cell voltage clamp, IonWorks Quattro)). Settings: not given.
T1 sequence (P48048 1-391): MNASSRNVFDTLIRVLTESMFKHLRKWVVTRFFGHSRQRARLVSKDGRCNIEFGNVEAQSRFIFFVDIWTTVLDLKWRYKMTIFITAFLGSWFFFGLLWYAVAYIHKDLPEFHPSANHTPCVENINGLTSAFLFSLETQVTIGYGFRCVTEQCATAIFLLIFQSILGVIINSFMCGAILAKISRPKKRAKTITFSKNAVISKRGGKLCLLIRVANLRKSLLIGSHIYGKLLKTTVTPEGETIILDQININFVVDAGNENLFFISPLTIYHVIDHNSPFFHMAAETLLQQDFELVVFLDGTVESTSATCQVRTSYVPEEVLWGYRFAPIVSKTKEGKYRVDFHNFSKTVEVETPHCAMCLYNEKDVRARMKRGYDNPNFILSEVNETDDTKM
In the case of N#Cc1cc([C@@H]2CN3CCN(C(=O)Cc4ccc(-n5cnnn5)nc4)C[C@H]3CO2)ccc1F [Example 37, 2-fluoro-5-[(3R,9aS)-8-{[6-(1H-tetrazol-1-yl)pyridin-3-yl]acetyl}octahydropyrazino[2,1-c][1,4]oxazin-3-yl]benzonitrile], the IC50 is reported as 20 nM.
Cc1c([C@@H]2CN3CCN(C(=O)Cc4ccc(-n5cnnn5)nc4)C[C@H]3CN2)ccc(F)c1C#N [Example 194, 6-fluoro-2-methyl-3-[(3R,9aR)-8-{[6-(1H-tetrazol-1-yl)pyridin-3-yl]acetyl}octahydro-2H-pyrazino[1,2-a]pyrazin-3-yl]benzonitrile] showed an IC50 of 60 nM.
In the case of COc1ccc([C@@H]2CN3CCN(C(=O)Cc4ccc(-n5cnnn5)nc4)C[C@H]3CO2)c(C)c1C#N [Example 50], the IC50 is reported as 130 nM.
For Cc1c([C@H]2CN3CCN(C(=O)Cc4ccc(-n5cnnn5)nc4)C[C@@H]3CO2)ccc(F)c1C#N [Example 7, 6-fluoro-2-methyl-3-[(3S,9aR)-8-{[6-(1H-tetrazol-1-yl)pvridin-3-yl]acetyl}octahydropyrazino[2,1-c][1,4]oxazin-3-yl]benzonitrile], the IC50 was 70 nM.
Molecule N#Cc1cc([C@@H]2CN3CCN(C(=O)Cc4ccc(-n5cnnn5)cn4)C[C@H]3CO2)ccc1F [Example 38, 2-fluoro-5-[(3R,9aS)-8-{[5-(1H-tetrazol-1-yl)pyridin-2-yl]acetyl}octahydropyrazino[2,1-c][1,4]oxazin-3-yl]benzonitrile] has an IC50 of 120 nM.
Cc1c([C@@H]2CN3CCN(C(=O)Cc4ccc(-n5cnnn5)nc4)C[C@@H]3CO2)ccc(F)c1C#N [Example 8, 6-fluoro-2-methyl-3-[(3R,9aR)-8-{[6-(1H-tetrazol-1-yl)pyridin-3-yl]acetyl}octahydropyrazino[2,1-c][1,4]oxazin-3-yl]benzonitrile] gave an IC50 of 40 nM.

Each molecule was assayed against T2, hROMK (hKir1.1) (Homo sapiens, UniProt P48048) (assay: Thallium Flux Assay). Settings: HEK293 cells stably expressing hROMK (hKir1.1), FLIPR-Tetra; read-out: Thallium Flux IC50.
T2 construct: expressed in transfected cells
T2 sequence (P48048 1-391): T1 sequence (P48048 1-391)
Assay type: cell-based
In short: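 HEK293 cells stably expressing hROMK, loaded with FluxOR dye 90 min at ambient temperature, then compound 30 min with 0.3 mM ouabain in probenecid buffer pH 7.4.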
For Cc1c([C@@H]2CN3CCN(C(=O)Cc4ccc(-n5cnnn5)nc4)C[C@H]3CN2)ccc(F)c1C#N [Example 194, 6-fluoro-2-methyl-3-[(3R,9aR)-8-{[6-(1H-tetrazol-1-yl)pyridin-3-yl]acetyl}octahydro-2H-pyrazino[1,2-a]pyrazin-3-yl]benzonitrile], the IC50 was 60 nM.
For COc1ccc([C@@H]2CN3CCN(C(=O)Cc4ccc(-n5cnnn5)nc4)C[C@H]3CO2)c(C)c1C#N [Example 50], the IC50 was 80 nM.
Work on Cc1c(C#N)cccc1[C@@H]1CN2CCN(C(=O)Cc3cnc(-n4cnnn4)nc3)C[C@@H]2CO1 [Example 116, 2-methyl-3-[(3R,9aR)-8-{[2-(1H-tetrazol-1-yl)pyrimidin-5-yl]acetyl}octahydropyrazino[2,1-c] [1,4]oxazin-3-yl]benzonitrile] yielded an IC50 of 330 nM.
COc1cc([C@H]2CN3CCN(C(=O)Cc4ccc(-n5cnnn5)nc4)C[C@@H]3CO2)cc(F)c1C#N [Example 112, 2-fluoro-6-methoxy-4-[(3S,9aR)-8-{[6-(1H-tetrazol-1-vl)pvridin-3-yl]acetyl}octahydropyrazino[2,1-c][1,4]oxazin-3-yl]benzonitrile] showed an IC50 of 220 nM.
For Cc1cc(-n2cnnn2)ncc1CC(=O)N1CCN2C[C@@H](c3ccc4c(c3)CCOC4=O)OC[C@@H]2C1 [Example 44, 6-[(3R,9aS)-8-{[4-methyl-6-(1H-tetrazol-1-yl)pyridin-3-yl]acetyl}octahydropyrazino[2,1-c][1,4]oxazin-3-yl]-3,4-dihydro-1H-isochromen-1-one], the IC50 was 170 nM.
In the case of N#Cc1ccc([C@@H]2CN3CCN(C(=O)Cc4ccc(-n5cnnn5)nc4)C[C@H]3CO2)cc1F [Example 66, 2-fluoro-4-[(3R,9aS)-8-{[6-(1H-tetrazol-1-yl)pyridin-3-yl]acetyl}octahydropyrazino[2,1-c][1,4]oxazin-3-yl]benzonitrile], the IC50 is reported as 370 nM.
Cc1c([C@H]2CN3CCN(C(=O)Cc4ccc(-n5cnnn5)cn4)C[C@@H]3CO2)ccc(F)c1C#N [Example 31, 6-fluoro-2-methyl-3-[(3S,9aR)-8-{[5-(1H-tetrazol-1-yl)pyridin-2-yl]acetyl}octahydropyrazino[2,1-c][1,4]oxazin-3-yl]benzonitrile] showed an IC50 of 160 nM.
COc1cc([C@@H]2CN3CCN(C(=O)Cc4ccc(-n5cnnn5)nc4)C[C@H]3CO2)ccc1C#N [Example 41, 2-methoxy-4-[(3R,9aS)-8-{[6-(1H-tetrazol-1-yl)pyridin-3-yl]acetyl}octahydropyrazino[2,1-c][1,4]oxazin-3-yl]benzonitrile] was tested, and the IC50 was 230 nM.
Cc1nc(CC(=O)N2CCN3C[C@H](c4ccc(F)c(C#N)c4C)OC[C@H]3C2)ccc1-n1cnnn1 [Example 131, 6-fluoro-2-methyl-3-[(3S,9aR)-8-{[6-methyl-5-(1H-tetrazol-1-vl)pvridin-2-yl]acetul}octahydropyrazino[2,1-c][1,4]oxazin-3-yl]benzonitrile] was tested, and the IC50 was 200 nM.
For COc1c([C@@H]2CN3CCN(C(=O)Cc4cnc(-n5cnnn5)nc4)C[C@H]3CO2)ccc(F)c1C#N [Example 140, 6-fluoro-2-methoxy-3-[(3R,9aS)-8-{[2-(1H-tetrazol-1-vl)pvrimidin-5-yl]acetyl}octahydropyrazino[2,1-c][1,4]oxazin-3-yl]benzonitrile], the IC50 was 120 nM.
Work on Cc1c(C2CN3CCN(C(=O)Cc4cnc(-n5cnnn5)nc4)CC3CCO2)ccc2c1COC2=O (single isomer, unassigned) [Example 165, 4-methyl-5-(2-{[2-(1H-tetrazol-1-yl)pyrimidin-5-yl]acetyl}octahydro-2H-pyrazino[1,2-d][1,4]oxazepin-7-yl)-2-benzofuran-1(3H)-one] yielded an IC50 of 210 nM.

Same assay, conditions: Thallium Flux IC50
O=C1OCCc2cc([C@H]3CN4CCN(C(=O)Cc5ccc(-n6cnnn6)nc5)C[C@@H]4CO3)ccc21 [Example 55, 6-[(3S,9aR)-8-{[6-(1H-tetrazol-1-yl)pyridin-3-yl]acetyl}octahydropyrazino[2,1-c][1,4]oxazin-3-yl]-3,4-dihydro-1H-isochromen-1-one] showed an IC50 of 120 nM.
Cc1c([C@@H]2CN3CCN(C(=O)Cc4cnc(-n5cnnn5)cn4)C[C@H]3CO2)ccc(F)c1C#N [Example 75, 6-fluoro-2-methyl-3-[(3R,9aS)-8-{[5-(1H-tetrazol-1-yl)pyrazin-2-yl]acetyl}octahydropyrazino[2,1-c][1,4]oxazin-3-yl]benzonitrile] showed an IC50 of 130 nM.
N#Cc1cc([C@@H]2CN3CCN(C(=O)Cc4ccc(-n5cnnn5)nc4)C[C@H]3CO2)c(F)cc1F [Example 81, 2,4-difluoro-5-[(3R,9aS)-8-{[6-(1H-tetrazol-1-yl)pyridin-3-yl]acetyl}octahydropyrazino[2,1-c][1,4]oxazin-3-yl]benzonitrile] gave an IC50 of 160 nM.
With C[C@@H]1Cc2cc([C@@H]3CN4CCN(C(=O)Cc5cnc(-n6cnnn6)nc5)C[C@H]4CO3)ccc2C(=O)O1 [Example 19] the IC50 was 160 nM.
Cc1c([C@@H]2CN3CCN(C(=O)Cc4ccc(-n5cnnn5)nn4)C[C@@H]3CO2)ccc(F)c1C#N [Example 156, 6-fluoro-2-methyl-3-[(3R,9aR)-8-{[6-(1H-tetrazol-1-yl)pyridazin-3-yl]acetyl}octahydropyrazino [2,1-c][1,4]oxazin-3-yl]benzonitrile] was tested, and the IC50 was 210 nM.
With Cc1c([C@@H]2CN3CCN(C(=O)Cc4ccc(-n5cnnn5)nc4)C[C@@H]3CCO2)ccc(F)c1C#N (single isomer, unassigned) [Example 170] the IC50 was 240 nM.
N#Cc1c(F)ccc([C@H]2CN3CCN(C(=O)Cc4cnc(-n5cnnn5)nc4)C[C@H]3CO2)c1Cl [Example 137, 2-chloro-6-fluoro-3-[(3S,9aS)-8-{[2-(1H-tetrazol-1-yl)pyrimidin-5-yl]acetyl}octahydropyrazino[2,1-c][1,4]oxazin-3-yl]benzonitrile] showed an IC50 of 60 nM.
With C[C@H]1Cc2cc([C@@H]3CN4CCN(C(=O)Cc5cnc(-n6cnnn6)nc5)C[C@H]4CO3)ccc2C(=O)O1 [Example 20, (3S)-3-methyl-6-[(3R,9aS)-8-{[2-(1H-tetrazol-1-yl)pyrimidin-5-yl]acetyl}octahydropyrazino[2,1-c][1,4]oxazin-3-yl]-3,4-dihydro-1H-isochromen-1-one] the IC50 was 170 nM.
With Cc1c([C@H]2CN3CCN(C(=O)Cc4ccc(-n5cnnn5)nc4)C[C@@H]3CO2)ccc2c1COC2=O [Example 24, 4-methyl-5-[(3S,9aR)-8-{[6-(1H-tetrazol-1-yl)pyridin-3-yl]acetyl}octahydropyrazino[2,1-c][1,4]oxazin-3-yl]-2-benzofuran-1(3H)-one] the IC50 was 160 nM.
Cc1c([C@H]2CN3CCN(C(=O)Cc4cccc(-n5cnnn5)n4)C[C@H]3CO2)ccc(F)c1C#N [Example 97, 6-fluoro-2-methyl-3-[(3S,9aS)-8-{[6-(1H-tetrazol-1-yl)pyridin-2-yl]acetyl}octahydropyrazino[2,1-c][1,4]oxazin-3-yl]benzonitrile] showed an IC50 of 250 nM.
Work on O=C1OCc2c1ccc([C@@H]1CN3CCN(C(=O)Cc4ccc(-n5cnnn5)nc4)C[C@H]3CO1)c2Cl [Example 46, 4-chloro-5-[(3R,9aS)-8-{[6-(1H-tetrazol-1-yl)pyridin-3-yl]acetyl}octahydropyrazino[2,1-c][1,4]oxazin-3-yl]-2-benzofuran-1(3H)-one] yielded an IC50 of 670 nM.
Work on Cc1nc(-n2cnnn2)nc(C)c1CC(=O)N1CCN2C[C@H](c3ccc(F)c(C#N)c3C)OC[C@H]2C1 [Example 151, 3-[(3S,9aR)-8-{[4,6-dimethyl-2-(1H-tetrazol-1-yl)pyrimidin-5-yl]acetyl}octahydropyrazino[2,1-c][1,4]oxazin-3-yl]-6-fluoro-2-methylbenzonitrile] yielded an IC50 of 300 nM.

Same assay, conditions: read-out: Thallium Flux IC50
“2,6-difluoro-3-[3R,9aS)-8-{[2-methyl-6-(1H-tetrazol-1-vl)pvridin-3-yl]acetyl}octahydropyrazino[2,1-c][1,4]oxazin-3-yl]benzonitrile [Example 89]” showed an IC50 of 70 nM.
